According to US20070134391A1, “High-Potency Sweetener Composition for Treatment and/or Prevention of Autoimmune Disorders and Compositions Sweetened Therewith” (THE COCA-COLA COMPANY, priority 2005, published 2007):

Tests used:
[1] = test system: panel of experts in the sensory evaluation of foods and beverages; test: Sensory evaluation of sweetness linger and sugar-like taste by expert panel; assay type: in vivo; details: scale 0=no sweetness linger to 5=high sweetness linger
Method: Sensory evaluation of the samples prepared in Example Set G was carried out under the following protocol, similar to that described hereinabove. In this test protocol, none of the samples were swallowed. All samples were expectorated and the mouth was rinsed with water after the tasting. Immediately upon sensing maximal sweetness, the sample was expectorated, the mouth was rinsed with water and the rate of sweetness decay (“Sweetness Linger”) was measured, where attention was focused on the sweetness 3-4 min after the water rinse. After sample tasting was complete, a salty oyster cracker was chewed followed by a water rinse, and at least 5 minutes followed before tasting the next sample. The sweetness linger was rated by a panel of experts in the sensory evaluation of foods and beverages using the following scale: 0=no sweetness linger, 1=very slight sweetness linger, 2=slight sweetness linger, 3=moderate sweetness linger, 4=moderately high sweetness linger, 5=high sweetness linger.
The “Sweetness Linger” rating for sucrose observed by this protocol is defined as 0. The Sweetness Linger of a 500 ppm of REBA control sample is defined as 5. Experimental samples were tasted by the same protocol, always allowing sufficient time between samples to ensure re-equilibration of the sensory system. Re-tasting of control samples during the course of the experiment was allowed and encouraged.
The comparison taste test was performed between two controls and addition of sweet taste improving additive on the onset and/or sweetness linger.
Sweet taste improving compositions were combined with a REBA solution to determine their effect on sweetness linger. Screening of the initial sample, or further dilutions, allowed identification of concentrations which were just above-threshold, herein defined as “near-threshold concentrations.” The near-threshold additive concentrations, a 6- to 100-fold higher higher additive concentration (depending on the off-taste intensity), and a mid-level additive concentration (halfway between the near-threshold and higher additive concentration) were evaluated to determine the effect on sweetness linger of a REBA solution.
Formulations of a 500 ppm EBA in a phosphoric acid solution (75%) at a pH of 2.5 with phosphoric acid or a pH of 3.1 with citric acid and potassium citrate were prepared prior to the addition of the additives at the three levels of concentration.
Sensory evaluation using the protocol described in Example Set G then was used to evaluate the sweetness linger of the REBA solutions.

[2] = Rate of dissolution of rebaudioside A polymorph and amorphous forms in H2O; assay type: physicochemical
[3] = Example Set G: citric acid/potassium citrate composition equivalent to diet lemon-lime beverage, 3-4 min after water rinse
[4] = Example Set H: carbon-treated water with phosphoric acid (75%) to pH 2.4-2.5

Row | Rate of dissolution in H2O at 25° C. [2] | Molecule | sweetness linger [1, 3] | sweetness linger [1, 4]
1 | – | rebaudioside A | 5 | 5
2 | – | OC[C@H]1O[C@@](CO)(O[C@H]2O[C@H](CO)[C@@H](O)[C@H](O)[C@H]2O)[C@@H](O)[C@@H]1O [sugar, sucrose] | 0 | 0
3 | Very low (<0.2%/ %/60 minutes | rebaudioside A [Form 1] | – | –
